Reference: the NIST ThermoML archive (doi:10.1021/je034087q)
Numbers after ± are expanded uncertainties.

Assay: xn = mol fraction of the nth substance listed
Settings: Fluid (supercritical or subcritical phases)

For `CC(C)=O` [acetone] + O=C=O, the mass density (326.65 K, 9200 kPa, x2 = 0.933) was 535 ± 3 kg/m3, the mass density (326.65 K, 9240 kPa, x2 = 0.933) was 540 ± 3 kg/m3 and the mass density (326.65 K, 9270 kPa, x2 = 0.933) was 544 ± 3 kg/m3. The mass density (326.65 K, 9310 kPa, x2 = 0.933) was 549 ± 3 kg/m3, the mass density (326.65 K, 9340 kPa, x2 = 0.933) was 553 ± 3 kg/m3 and the mass density (326.65 K, 9370 kPa, x2 = 0.933) was 559 ± 4 kg/m3. The mass density (326.65 K, 9410 kPa, x2 = 0.933) was 563 ± 4 kg/m3, the mass density (326.65 K, 9460 kPa, x2 = 0.933) was 569 ± 4 kg/m3 and the mass density (326.65 K, 9500 kPa, x2 = 0.933) was 574 ± 4 kg/m3. For the same molecule, the mass density (326.65 K, 9550 kPa, x2 = 0.933) was 579 ± 4 kg/m3, the mass density (326.65 K, 9600 kPa, x2 = 0.933) was 584 ± 4 kg/m3 and the mass density (326.65 K, 9660 kPa, x2 = 0.933) was 590 ± 4 kg/m3. It also gave a mass density (326.65 K, 9710 kPa, x2 = 0.933) of 594 ± 4 kg/m3, a mass density (326.65 K, 9790 kPa, x2 = 0.933) of 601 ± 4 kg/m3 and a mass density (326.65 K, 9850 kPa, x2 = 0.933) of 606 ± 4 kg/m3. It also gave a mass density (326.65 K, 9930 kPa, x2 = 0.933) of 612 ± 4 kg/m3, a mass density (326.65 K, 10010 kPa, x2 = 0.933) of 617 ± 4 kg/m3 and a mass density (326.65 K, 10110 kPa, x2 = 0.933) of 625 ± 4 kg/m3. For the same molecule, the mass density (326.65 K, 10210 kPa, x2 = 0.933) was 630 ± 4 kg/m3, the mass density (326.65 K, 10340 kPa, x2 = 0.933) was 637 ± 4 kg/m3 and the mass density (326.65 K, 10470 kPa, x2 = 0.933) was 643 ± 4 kg/m3. The mass density (326.65 K, 10590 kPa, x2 = 0.933) was 650 ± 4 kg/m3, the mass density (326.65 K, 10750 kPa, x2 = 0.933) was 656 ± 4 kg/m3 and the mass density (326.65 K, 10920 kPa, x2 = 0.933) was 663 ± 4 kg/m3. It also gave a mass density (326.65 K, 11100 kPa, x2 = 0.933) of 670 ± 4 kg/m3, a mass density (326.65 K, 11320 kPa, x2 = 0.933) of 677 ± 4 kg/m3 and a mass density (326.65 K, 11540 kPa, x2 = 0.933) of 684 ± 4 kg/m3. For the same molecule, the mass density (326.65 K, 11800 kPa, x2 = 0.933) was 691 ± 4 kg/m3, the mass density (326.65 K, 12060 kPa, x2 = 0.933) was 699 ± 4 kg/m3 and the mass density (326.65 K, 12380 kPa, x2 = 0.933) was 708 ± 4 kg/m3. The mass density (326.65 K, 12730 kPa, x2 = 0.933) was 715 ± 4 kg/m3, the mass density (326.65 K, 13140 kPa, x2 = 0.933) was 723 ± 5 kg/m3 and the mass density (326.65 K, 13580 kPa, x2 = 0.933) was 731 ± 5 kg/m3. The mass density (326.65 K, 14060 kPa, x2 = 0.933) was 741 ± 5 kg/m3, the mass density (326.65 K, 14600 kPa, x2 = 0.933) was 749 ± 5 kg/m3 and the mass density (328.15 K, 9370 kPa, x2 = 0.902) was 632 ± 4 kg/m3. The mass density (328.15 K, 9490 kPa, x2 = 0.902) was 640 ± 4 kg/m3, the mass density (328.15 K, 9620 kPa, x2 = 0.902) was 645 ± 4 kg/m3 and the mass density (328.15 K, 9720 kPa, x2 = 0.902) was 650 ± 4 kg/m3. The mass density (328.15 K, 9780 kPa, x2 = 0.902) was 654 ± 4 kg/m3, the mass density (328.15 K, 9910 kPa, x2 = 0.902) was 657 ± 4 kg/m3 and the mass density (328.15 K, 10020 kPa, x2 = 0.902) was 662 ± 4 kg/m3. It also gave a mass density (328.15 K, 10150 kPa, x2 = 0.902) of 669 ± 4 kg/m3, a mass density (328.15 K, 10330 kPa, x2 = 0.902) of 673 ± 4 kg/m3 and a mass density (328.15 K, 10480 kPa, x2 = 0.902) of 679 ± 4 kg/m3. For the same molecule, the mass density (328.15 K, 10610 kPa, x2 = 0.902) was 684 ± 4 kg/m3, the mass density (328.15 K, 10820 kPa, x2 = 0.902) was 688 ± 4 kg/m3 and the mass density (328.15 K, 11020 kPa, x2 = 0.902) was 695 ± 4 kg/m3. It also gave a mass density (328.15 K, 11200 kPa, x2 = 0.902) of 700 ± 4 kg/m3, a mass density (328.15 K, 11440 kPa, x2 = 0.902) of 705 ± 4 kg/m3 and a mass density (328.15 K, 11720 kPa, x2 = 0.902) of 711 ± 4 kg/m3. For the same molecule, the mass density (328.15 K, 11920 kPa, x2 = 0.902) was 716 ± 4 kg/m3, the mass density (328.15 K, 12230 kPa, x2 = 0.902) was 721 ± 5 kg/m3 and the mass density (328.15 K, 12460 kPa, x2 = 0.902) was 727 ± 5 kg/m3. The mass density (328.15 K, 12780 kPa, x2 = 0.902) was 733 ± 5 kg/m3.
